Entries after “also recorded” stand apart in the source; their conditions may differ. Read-outs that look alike come from different tables or passages of the source.
Legend:
[1] = test system: lung cancer cells overexpressing the EGFR receptor (PDX); experiment: ex vivo drug testing of lung cancer cells overexpressing EGFR in 3D hydrogel; assay type: cell-based, human
[2] = test system: lung cancer cells overexpressing the c-Met receptor (PDX, LXFA-1647); experiment: ex vivo drug testing of lung cancer cells overexpressing c-Met in a 3D hydrogel array / Matrigel; assay type: cell-based, human
Text: A PEG was used as a hydrogel precursor molecule for making a non self-degradable hydrogel. As a crosslinking agent, peptides containing at least two, preferably two cysteine moieties were used which varied in their amino acid sequence, in particular with respect to the presence or absence of a RGD adhesion motif and with respect to the presence or absence of a MMP degradation sequence. A further variation that was made to some hydrogels was the attachment of a bioactive ligand comprising a RGD adhesion motif or/and a ligand selected from the group consisting of natural laminins, recombinant laminin isoforms, and biofunctional fragments thereof. Examples of suitable recombinant laminin isoforms are laminin-111, laminin-211, laminin-332, laminin-411, laminin-511, or laminin-521. An array of hydrogels varying in the above preselected features was established, by the method described above.
The mechanical properties of the hydrogels were also varied (soft (50-1000 Pa), medium (1000-2000 Pa) or hard (2000-3000 Pa) gels).
For comparison, tests were also conducted in the undefined natural-derived matrix Matrigel®.
The respective drug was added to the culture media after 1 to 8 days of culture (1 to 8 days post cell encapsulation). The drug response was measured after 5 to 10 days post-drug addition. As a preferred culture medium, a medium was preselected that is characterized by the presence of FBS (serum) or Wnt agonists such as R-spondin. According to this example, a culture medium was used that was adapted from the medium described in Sachs et al. (The EMBO Journal e 100300|2019). The preferred culture medium comprised AdDMEM/F12 medium supplemented with glutamine, Noggin, EGF, fibroblast growth factor 7 and 10 [FGF7 and FGF10], HGF, R-spondin-conditioned medium, Primocin, penicillin/streptomycin, N-acetyl-L-cysteine, Nicotinamide, A83-01, SB202190 (p38-inhibitor), Y-27632 (rock inhibitor), B27 supplement and HEPES. Target expression (c-Met and Phospho c-Met) was detected by Western-blot in corresponding growth conditions.

[3] = test system: non-small cell lung cancer (NSCLC) model LXFA-1647; experiment: in vivo treatment of patient-derived xenograft (PDX) NSCLC model; design: species or system human; settings: PDX NSCLC model LXFA-1647
[4] = Matrigel as matrix (comparative example 1), FIG. 1c
[5] = conditions of example 1a: soft non self-degradable PEG hydrogel without any RGD motif (responder conditions), FIG. 1b
[6] = responder conditions of example 1a (hydrogel without any RGD motif), FIG. 1e

With `C#Cc1cccc(Nc2ncnc3cc(OCCOC)c(OCCOC)cc23)c1` [Erlotinib] the “drug response (effect of treatment)” value [1] was “clear effect”.
With `CC(=O)O[C@@]12CO[C@@H]1C[C@H](O)[C@@]1(C)C(=O)[C@H](O)C3=C(C)[C@@H](OC(=O)[C@H](O)[C@@H](NC(=O)OC(C)(C)C)c4ccccc4)C[C@@](O)([C@@H](OC(=O)c4ccccc4)[C@H]21)C3(C)C` [Docetaxel] the “drug response (effect of treatment)” value [2, 4] was “an effect” and the “drug response (effect of treatment)” value [2, 5] was “clearly effective”.
`CC(=O)O[C@H]1C(=O)[C@@]2(C)[C@H]([C@H](OC(=O)c3ccccc3)[C@]3(O)C[C@H](OC(=O)[C@H](O)[C@@H](NC(=O)c4ccccc4)c4ccccc4)C(C)=C1C3(C)C)[C@]1(OC(C)=O)CO[C@@H]1C[C@@H]2O` [Paclitaxel] was tested, and the “drug response (effect of treatment)” value [1, 6] was “clear effect”.
With `OCCn1cc(-c2cnc3nnn(Cc4ccc5ncccc5c4)c3n2)cn1` [PF-04217903] the “tumor growth in vivo” value [3] was “induces tumor growth regression”, the “drug response (effect of treatment)” value [2, 4] was “did not respond; also recorded: No effect” and the “drug response (effect of treatment)” value [2, 5] was “clearly effective”. For the same compound, the “drug response (effect of treatment)” value ([2]; hydrogel with 1 mM bioactive ligand comprising a RGD motif attached (non-responder conditions, example 1b)) was “resistant” and the “drug response (effect of treatment)” value [1, 6] was “no effect”.
